From US11453689B2, “3-pyrrolidine-indole derivatives as serotonergic psychedelic agents for the treatment of CNS disorders” (Mindset Pharma Inc., priority 2020, dated 2022)
Read-outs that look alike come from different tables or passages of the source.

Columns and labels:
[1] = target: human 5-HT2A receptor (Homo sapiens (Human), UniProt P28223); assay: Radioligand ([3H]-ketanserin) binding assay on human 5-HT2A receptor
Protocol: i. Prepare the assay buffer following the table below;
ii. Preparation of 8 doses of reference and exemplary test compounds starting from 10 mM stock solution as requested by 5-fold serial dilutions with 100%;
iii. […] a. Add 50 μl/well of 0.5% (v/v) PEI to UniFilter-96 GF/B plates. Seal the plates and incubate at 4° C. for 3 hrs; b. After incubation, wash the plates 3 times with ice-cold wash buffer (50 mM Tris, pH7.4);
iv. Preparation of assay plates: a. Dilute cell membrane with assay buffer and add 330 μl/well to 96 round deep well plates to reach a concentration of 20 μg/well; b. Prepare 8 concentrations of reference or exemplary test compounds and add 110 μl/well to 96 round deep well plates; c. Dilute [3H]-ketanserin with assay buffer to 5 nM (5× final concentration) and add 110 μl/well to 96 round deep well plates.
v. Centrifuge the plate at 1000 rpm for 30 secs and then agitate at 600 rpm, R.T. for 5 min.
vi. Seal the plates and incubate the plate at 27° C. for 90 min.
vii. Stop the incubation by vacuum filtration onto GF/B filter plates followed by 4 times washing with ice-cold wash buffer (50 mM Tris, pH7.4).
ix. Seal the filter plates and add 40 μl/well of scintillation cocktail.
x. Read the plate by using a Microbeta2 microplate counter.
For reference and exemplary test compounds, the results are expressed as % Inhibition, using the normalization equation: N=100−100×(U−C2)/(C1−C2), where U is the unknown value, C1 is the average of high controls, and C2 is the average of low controls. The IC50 is determined by fitting percentage of inhibition as a function of compound concentrations with Hill equation using XLfit.

[2] = target: human 5-HT2A (h5-HT2A) receptor (Homo sapiens (Human), UniProt P28223); assay: FLIPR calcium assay, human 5-HT2A receptor, agonist mode; assay type: cell-based
Protocol: I. Assessment of the Activated Effect of Exemplary Compounds of Formula I Targeting on Human 5-HT2A (h5-HT2A) Receptor Under Agonist Mode:
1. Culture the cells in cell culture medium (DMEM containing 10% FBS, 1× penicillin-streptomycin 300 μg/ml G418 and 100 μg/ml hygromycin B) at 37° C., 5% (v/v) CO2.
2. One day before the assays, detach the cell using TrypLE™ Express and count cells using cell counter.
3. Seed 20000 cells/well in 30 μl/well culture medium to a 384-well cell plate and incubate the cells overnight at 37° C., 5% (v/v) CO2.
4. On the assay day, prepare 2×dye solution following the manual of the FLIPR® Calcium 6 Assay Kit: i. Dilute the dye with assay buffer(20 mM HEPES in 1× HBSS, PH7.4); ii. Add probenecid to the final concentration of 5 mM; iii. Vortex vigorously for 1-2 minutes.
5. Medium from cell plate by flicking the cell plate on towel papers.
6. Add 10 μl of assay buffer and 10 μl of 2×dye solution to each well of the cell plate.
7. Put the cell plate on plate shaker, agitate the plate at 600 rpm for 2 minutes. Incubate the plate at 37° C. for 2 hours followed by additional 15-minute incubation at 25° C.
8. Prepare 3×compound in assay buffer: a. Dilute reference compounds to required concentration with DMSO. Add the compounds to a 384-well compound plate; b. Perform serial dilutions; c. Add 10 mM test compounds to the compound plate, perform 3-fold serial dilutions. d. […] Add 20 μl/well assay buffer to the compound plate; f. Mix the plate on plate shaker for 2 mins;
i. The normalized fluorescence reading (RFU) is calculated as shown follow, while Fmax and Fmin stand for maximum and minimum of calcium signal during defined time window: RFU=Fmax−Fmin
ii. Calculate the percentage activation by using following equation: […]
iii. Calculate EC50 by fitting % activation against log of compound concentrations with Hill equation using XLfit.

[3] = Mouse liver microsomes stability with NADPH; settings: for half-life at 2 μM / microsomal CLint at 2 μM: male, mouse, microsomes; for Remaining Percentage (%) after 60 min, Mouse: mouse liver microsomes, with NADPH, 2 μM
Protocol: (§1) The objective of this study was to estimate in vitro metabolic stability of exemplary compounds in pooled human, male rat and male mouse liver microsomes. The concentrations of exemplary compounds in reaction systems were evaluated by LC-MS/MS for estimating the stability in pooled human, male rat and male mouse liver microsomes. The in vitro intrinsic clearances of test compounds were determined as well.
(§2) A master solution in the “Incubation Plate” containing phosphate buffer, ultra-pure H2O, MgCl2 solution and liver microsomes was made according to Table 3. The mixture was pre-warmed at 37° C. water bath for 5 minutes.
(§3) 40 μL of 10 mM NADPH solution was added to each well. The final concentration of NADPH was 1 mM. The negative control samples were prepared by replacing NADPH with 40 μL of ultra-pure H2O. Samples were prepared in duplicate. Negative controls were prepared in singlet.
(§4) The reaction was started with the addition of 4 μL of 200 μM exemplary test compounds or control compounds to each master solution to get the final concentration of 2 μM. This study was performed in duplicate.
(§5) Aliquots of 50 μL were taken from the reaction solution at 0, 15, 30, 45 and 60 minutes. The reaction solutions were stopped by the addition of 4 volumes of cold methanol with IS (100 nM alprazolam, 200 nM imipramine, 200 nM labetalol and 2 μM ketoprofen). Samples were centrifuged at 3,220 g for 40 minutes. Aliquot of 90 μL of the supernatant was mixed with 90 μL of ultra-pure H2O and then was used for LC-MS/MS analysis.
(§6) LC/MS analysis was performed for all samples from this study using a Shimadzu liquid chromatograph separation system equipped with degasser DGU-20A5R; solvent delivery unit LC-30AD; system controller SIL-30AC; column oven CTO-30A; CTC Analytics HTC PAL System. Mass spectrometric analysis was performed using an Triple Quad™ 5500 instrument.
(§7) All calculations were carried out using Microsoft Excel. Peak areas were determined from extracted ion chromatograms. The slope value, k, was determined by linear regression of the natural logarithm of the remaining percentage of the parent drug vs. incubation time curve.
(§8) Conversion of the in vitro t1/2 (min) into the in vitro intrinsic clearance (in vitro CLint, in μL/min/mg proteins) was done using the following equation (mean of duplicate determinations): […]

[4] = Human liver microsomes stability with NADPH; settings: for Remaining Percentage (%) after 60 min, Human: human liver microsomes, with NADPH, 2 μM; for half-life at 2 μM / microsomal CLint at 2 μM: human, microsomes
Protocol: as §1, §2, §3, §4, §5, §6, §7, §8

[5] = Rat liver microsomes stability with NADPH; settings: for half-life at 2 μM / microsomal CLint at 2 μM: male, rat, microsomes; for Remaining Percentage (%) after 60 min, Rat: rat liver microsomes, with NADPH, 2 μM
Protocol: as §1, §2, §3, §4, §5, §6, §7, §8

[2H]C([2H])(c1c[nH]c2cccc(Cl)c12)[C@H]1CCCN1C([2H])([2H])[2H] [Compound I-38, (R)-4-chloro-3-((1-(methyl-d3)pyrrolidin-2-yl)methyl-d2)-1H-indole]
IC50 [1]: < 500 nM | EC50 [2]: > 10000 nM

[2H]C([2H])([2H])N1CCC[C@@H]1Cc1c[nH]c2cccc(OCc3ccccc3)c12 [Compound I-45, (R)-4-(benzyloxy)-3-((1-(methyl-d3)pyrrolidin-2-yl)methyl)-1H-indole]
EC50 [2]: > 10000 nM

[2H]C([2H])(c1c[nH]c2cccc(OP(=O)(O)O)c12)[C@H]1CCCN1C([2H])([2H])[2H] [Compound I-54, (R)-3-((1-(methyl-d3)pyrrolidin-2-yl)methyl-d2)-1H-indol-4-yl dihydrogen phosphate]
EC50 [2]: 1000 to 10000 nM

[2H]C([2H])(c1c[nH]c2cccc(OC(=O)CCCCCCC/C=C\C/C=C\CCCCC)c12)[C@H]1CCCN1C([2H])([2H])[2H] [Compound I-49, 3-(((R)-1-(methyl-d3)pyrrolidin-2-yl)methyl-d2)-1H-indol-4-yl (9Z,12Z)-octadeca-9,12-dienoate]
IC50 ([1]; [3H]-ketanserin competition binding, read-out: h5-HT2A IC50): < 500 nM | EC50 ([2]; FLIPR, agonist mode, read-out: h5-HT2A EC50): 1000 to 10000 nM | half-life at 2 μM [3]: 20.8 min | microsomal CLint at 2 μM [3]: 66.5 µL/min/mg | Remaining Percentage (%) after 60 min, Mouse [3]: 13.60% | Remaining Percentage (%) after 60 min, Human [4]: 86.81% | half-life at 2 μM [4]: 294 min | microsomal CLint at 2 μM [4]: 4.72 µL/min/mg | half-life at 2 μM [5]: 48.4 min | microsomal CLint at 2 μM [5]: 28.6 µL/min/mg | Remaining Percentage (%) after 60 min, Rat [5]: 42.38%

Oc1cccc2[nH]cc(C[C@H]3CCCN3)c12 [Compound I-3, (R)-3-(pyrrolidin-2-ylmethyl)-1H-indol-4-ol]
EC50 [2]: < 1000 nM

CN(C)CCc1c[nH]c2cccc(O)c12 [Psilocin, 4-hydroxy-N,N-dimethyltryptamine, reference compound]
Remaining Percentage (%) after 60 min, Mouse [3]: 96.89% | Remaining Percentage (%) after 60 min, Human [4]: 70.16% | Remaining Percentage (%) after 60 min, Rat [5]: 62.68%

[2H]C([2H])(c1c[nH]c2cccc(O)c12)[C@@H]1CCCN1 [Compound I-51, (S)-3-(pyrrolidin-2-ylmethyl-d2)-1H-indol-4-ol]
EC50 [2]: < 1000 nM

[2H]C([2H])([2H])N1CCC[C@H]1Cc1c[nH]c2cccc(OCc3ccccc3)c12 [Compound I-52, (S)-4-(benzyloxy)-3-((1-(methyl-d3)pyrrolidin-2-yl)methyl)-1H-indole]
EC50 [2]: > 10000 nM

[2H]C([2H])([2H])N1CCC[C@@H]1Cc1c[nH]c2cccc(OC(=O)CCCCCCC/C=C\C/C=C\CCCCC)c12 [Compound I-48, 3-(((R)-1-(methyl-d3)pyrrolidin-2-yl)methyl)-1H-indol-4-yl (9Z,12Z)-octadeca-9,12-dienoate]
IC50 ([1]; read-out: h5-HT2A IC50, [3H]-ketanserin competition binding): < 500 nM | EC50 ([2]; read-out: h5-HT2A EC50, FLIPR, agonist mode): 1000 to 10000 nM | half-life at 2 μM [3]: 17.3 min | microsomal CLint at 2 μM [3]: 80 µL/min/mg | Remaining Percentage (%) after 60 min, Mouse [3]: 9.06% | Remaining Percentage (%) after 60 min, Human [4]: 34.38% | half-life at 2 μM [4]: 73.4 min | microsomal CLint at 2 μM [4]: 18.9 µL/min/mg | half-life at 2 μM [5]: 38.9 min | microsomal CLint at 2 μM [5]: 35.6 µL/min/mg | Remaining Percentage (%) after 60 min, Rat [5]: 41.86%

[2H]C([2H])(c1c[nH]c2cccc(F)c12)[C@H]1CCCN1C([2H])([2H])[2H] [Compound I-37, (R)-4-fluoro-3-((1-(methyl-d3)pyrrolidin-2-yl)methyl-d2)-1H-indole]
IC50 [1]: 500 to 5000 nM | EC50 [2]: < 1000 nM | half-life at 2 μM [3]: 53.7 min | microsomal CLint at 2 μM [3]: 25.8 µL/min/mg | Remaining Percentage (%) after 60 min, Mouse [3]: 46.10% | Remaining Percentage (%) after 60 min, Human [4]: 31.93% | half-life at 2 μM [4]: 36.4 min | microsomal CLint at 2 μM [4]: 38.1 µL/min/mg | half-life at 2 μM [5]: 29.8 min | microsomal CLint at 2 μM [5]: 46.5 µL/min/mg | Remaining Percentage (%) after 60 min, Rat [5]: 24.82%

[2H]C([2H])(c1c[nH]c2cccc(F)c12)[C@H]1CCCN1 [Compound I-41, (R)-4-fluoro-3-(pyrrolidin-2-ylmethyl-d2)-1H-indole]
IC50 [1]: 500 to 5000 nM | EC50 [2]: 1000 to 10000 nM

[2H]C([2H])(c1c[nH]c2cccc(O)c12)[C@H]1CCCN1 [Compound I-50, (R)-3-(pyrrolidin-2-ylmethyl-d2)-1H-indol-4-ol]
IC50 [1]: 500 to 5000 nM | EC50 [2]: < 1000 nM | half-life at 2 μM [3]: 74.6 min | microsomal CLint at 2 μM [3]: 18.6 µL/min/mg | Remaining Percentage (%) after 60 min, Mouse [3]: 57.27% | Remaining Percentage (%) after 60 min, Human [4]: 69.29% | half-life at 2 μM [4]: 113 min | microsomal CLint at 2 μM [4]: 12.2 µL/min/mg | half-life at 2 μM [5]: 39.7 min | microsomal CLint at 2 μM [5]: 34.9 µL/min/mg | Remaining Percentage (%) after 60 min, Rat [5]: 34.11%

CN1CCC[C@@H]1Cc1c[nH]c2cccc(O)c12 [Compound I-47, (R)-3-((1-methylpyrrolidin-2-yl)methyl)-1H-indol-4-ol]
EC50 [2]: < 1000 nM

[2H]C([2H])([2H])N1CCC[C@H]1Cc1c[nH]c2cccc(O)c12 [Compound I-53, (S)-3-((1-(methyl-d3)pyrrolidin-2-yl)methyl)-1H-indol-4-ol]
IC50 [1]: > 5000 nM | EC50 [2]: 1000 to 10000 nM

CN1CCC[C@@H]1Cc1c[nH]c2cccc(OCc3ccccc3)c12 [Compound I-46, (R)-4-(benzyloxy)-3-((1-methylpyrrolidin-2-yl)methyl)-1H-indole]
EC50 [2]: > 10000 nM

[2H]C([2H])(c1c[nH]c2cccc(OCc3ccccc3)c12)[C@H]1CCCN1C([2H])([2H])[2H] [Compound I-43, (R)-4-(benzyloxy)-3-((1-(methyl-d3)pyrrolidin-2-yl)methyl-d2)-1H-indole]
EC50 [2]: > 10000 nM

[2H]C([2H])(c1c[nH]c2cccc(F)c12)[C@@H]1CCCN1C([2H])([2H])[2H] [Compound I-42, (S)-4-fluoro-3-((1-(methyl-d3)pyrrolidin-2-yl)methyl-d2)-1H-indole]
IC50 [1]: > 5000 nM | EC50 [2]: > 10000 nM
